Results on 13 compounds are retold here after patent publication US9752110B2, “Method and compositions of preserving wine” (YSDR, LLC, priority 2008, dated 2017).

Series [1] has as its system eNOS. The note with it: cited from earlier work.
For series [2], the system named is malolactic conversion. Kind of series: Effect on malolactic conversion in wine. The text has this: Another important process in wine-making is the Malolactic fermentation. Malic acid is naturally present in the grape must, but it adds an unpleasant taste to the wine. […] As discussed above, nearly all red wines undergo malolactic fermentation. As discussed above, the conversion is usually carried out by introducing a lactobacteria (most commonly the Oenococus-Oeni lactobacteria) to the wine after an initial fermentation step. […] Therefore, in wine preserved with resveratrol and/or pterostilbene, the malolactic fermentation can take place during the initial alcohol-fermentation process. That is, no separate step of malic and lactic fermentation needs to be carried out when wine is preserved with resveratrol and/or pterostilbene.

Series [3] deals with bacteria and fungi in wine. To be noted: cited from earlier work.
Series [4] deals with lactobacilus. Kind of series: Antibacterial specificity: lactobacilli.
Series [5] has as its system acetobacter xilum. Kind of series: Antibacterial specificity: acetobacter.
For series [6] the following is noted: cited from earlier work.

Take `O=c1c(O)c(-c2cc(O)c(O)c(O)c2)oc2cc(O)cc(O)c12` [myricetin]: the “eNOS expression or eNOS promoter activity” value in series [1] is “did not change”.

`COc1cc(C=CC(=O)O)cc(OC)c1O` (stereo in doubt) [sinapinic acid]: in series [1], the “eNOS expression or eNOS promoter activity” value is on record as “did not change”.

Turning to `O=C(O)/C=C/c1ccc(O)c(O)c1` [caffeic acid], the “eNOS expression or eNOS promoter activity” value in series [1] is reported as “enhanced eNOS expression moderately”.

Consider sulfur dioxide [SO2], for which, in series [2], the “effect on malolactic conversion” value was “suppress the malolactic conversion”.

`O=C(O)c1cc(O)c(O)c(O)c1` [gallic acid]: in series [1], the “eNOS expression or eNOS promoter activity” value was “did not change”.

For the compound `O=c1c(O)c(-c2ccc(O)c(O)c2)oc2cc(O)ccc12` [fisetin], the “eNOS expression or eNOS promoter activity” value in series [1] is “did not change”.

For `COc1cc(C(=O)O)ccc1O` [vanillic acid], the “eNOS expression or eNOS promoter activity” value in series [1] is reported as “enhanced eNOS expression moderately”.

On to `O=C(O)c1ccccc1` [benzoic acid], for which the “eNOS expression or eNOS promoter activity” value in series [1] was “enhanced eNOS expression moderately”.

In the case of `Oc1ccc(/C=C/c2cc(O)cc(O)c2)cc1` [Resveratrol, 3,4′,5-trihydroxy-trans-stilbene], the “antibacterial and antifungal activity in wine” value in series [3] was “antibacterial and antifungal activity”. The “anti-bacterial properties against lactobacilus” value in series [4] is reported as “no anti-bacterial properties”. For the same compound, the “inhibition of acetobacter xilum” value in series [5] is on record as “specific inhibitor”. Besides, the “eNOS expression or eNOS promoter activity” value in series [1] is “most efficacious stimulator”.

For the compound `COc1cc(/C=C/c2ccc(O)cc2)cc(OC)c1` [pterostilbene, 4-[(E)-2,(3,5-dimethoxyphenyl)ethenyl]phenol], the water solubility entry in series [6] was “less water soluble than resveratrol”.

On to catechin, for which the “eNOS expression or eNOS promoter activity” value in series [1] is listed as “did not change”.

As to `O=C(O)/C=C/c1ccc(O)cc1` [p-coumaric acid], the “eNOS expression or eNOS promoter activity” value in series [1] is reported as “enhanced eNOS expression moderately”.

With `COc1cc(/C=C/C(=O)O)ccc1O` [ferulic acid], the “eNOS expression or eNOS promoter activity” value in series [1] is given as “did not change”.
